Data reported in publication PMC10746543, “Design principles for cyclin K molecular glue degraders” (Nature Chemical Biology, 2023).
“And” between values parts separate entries of the source, which are not always exact repeats. Identical values can stand only once. Like-named read-outs stand apart in the source and are kept apart here. Each block holds one compound with its values, some of them ahead of it.

Key:
CDK12–cyclin K and DDB1 = target: T1, CDK12–cyclin K and DDB1 (Homo sapiens, UniProt Q16531+Q9NYV4, K965R); assay: TR-FRET ternary complex formation assay (compound titration); type: binding; conditions: raw replicate titration data
T1 construct: His6–CDK12 (a.a. 713–1,052); full-length or beta-propeller B domain deletion (ΔBPB: a.a. 396–705 deleted) constructs of His6–DDB1ΔBPB, StrepII–Avi–DDB1, or His6–Spy–DDB1; made in house; host or cells: Trichoplusia ni High Five insect cells (baculovirus)
T1 sequence (Q9NYV4 713-1052 K965R): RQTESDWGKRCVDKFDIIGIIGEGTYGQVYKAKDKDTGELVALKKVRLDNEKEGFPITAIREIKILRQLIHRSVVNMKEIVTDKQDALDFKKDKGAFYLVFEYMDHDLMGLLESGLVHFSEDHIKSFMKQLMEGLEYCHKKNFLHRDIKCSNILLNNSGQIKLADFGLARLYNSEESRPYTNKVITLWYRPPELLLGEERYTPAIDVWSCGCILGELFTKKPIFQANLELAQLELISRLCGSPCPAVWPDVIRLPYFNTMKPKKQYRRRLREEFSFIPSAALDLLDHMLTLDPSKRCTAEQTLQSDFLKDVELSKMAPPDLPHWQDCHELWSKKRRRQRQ
T1 sequence (O75909 1-267 partner): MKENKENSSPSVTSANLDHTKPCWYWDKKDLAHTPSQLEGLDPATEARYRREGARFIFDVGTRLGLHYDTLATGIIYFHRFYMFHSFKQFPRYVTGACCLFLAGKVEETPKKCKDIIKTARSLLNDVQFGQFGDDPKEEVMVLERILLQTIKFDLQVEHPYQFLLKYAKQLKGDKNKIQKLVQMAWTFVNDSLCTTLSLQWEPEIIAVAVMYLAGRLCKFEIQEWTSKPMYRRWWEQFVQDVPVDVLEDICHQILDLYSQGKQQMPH
T1 sequence (Q16531 whole entry): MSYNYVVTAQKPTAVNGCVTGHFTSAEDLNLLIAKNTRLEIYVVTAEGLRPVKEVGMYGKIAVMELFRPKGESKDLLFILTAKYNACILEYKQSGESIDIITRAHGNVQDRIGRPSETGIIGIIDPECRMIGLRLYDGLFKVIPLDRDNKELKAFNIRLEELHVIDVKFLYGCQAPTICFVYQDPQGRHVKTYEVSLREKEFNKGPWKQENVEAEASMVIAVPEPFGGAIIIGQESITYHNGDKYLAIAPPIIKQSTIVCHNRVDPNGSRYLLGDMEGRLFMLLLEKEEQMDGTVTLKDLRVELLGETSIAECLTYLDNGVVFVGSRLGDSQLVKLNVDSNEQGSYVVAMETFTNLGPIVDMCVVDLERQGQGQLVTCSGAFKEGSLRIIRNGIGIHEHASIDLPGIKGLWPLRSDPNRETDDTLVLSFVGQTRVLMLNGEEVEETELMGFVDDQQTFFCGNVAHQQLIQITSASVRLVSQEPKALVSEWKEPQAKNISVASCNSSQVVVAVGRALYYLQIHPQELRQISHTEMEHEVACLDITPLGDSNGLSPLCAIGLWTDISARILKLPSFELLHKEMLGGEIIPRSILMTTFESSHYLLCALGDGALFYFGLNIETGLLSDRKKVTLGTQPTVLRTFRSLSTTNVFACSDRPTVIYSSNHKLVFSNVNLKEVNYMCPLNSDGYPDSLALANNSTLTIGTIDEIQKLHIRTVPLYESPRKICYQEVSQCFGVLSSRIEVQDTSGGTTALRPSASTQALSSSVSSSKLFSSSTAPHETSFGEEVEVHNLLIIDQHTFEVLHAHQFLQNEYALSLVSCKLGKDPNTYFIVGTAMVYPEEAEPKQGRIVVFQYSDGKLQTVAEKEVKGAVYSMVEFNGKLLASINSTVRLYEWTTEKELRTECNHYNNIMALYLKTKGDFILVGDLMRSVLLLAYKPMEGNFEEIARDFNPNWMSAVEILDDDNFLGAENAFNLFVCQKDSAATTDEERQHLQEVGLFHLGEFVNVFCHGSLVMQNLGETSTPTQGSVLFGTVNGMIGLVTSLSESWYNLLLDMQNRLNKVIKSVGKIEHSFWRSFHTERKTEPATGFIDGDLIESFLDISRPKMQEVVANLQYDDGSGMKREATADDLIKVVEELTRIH
Method in brief: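 Signal was the ratio of 520 nm to 490 nm fluorescence, measured after a 70 μs delay that reduced background.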

[1] = system: cyclin K–eGFP degradation reporter; assay: Cyclin K reporter stability analysis (dual-color cyclin K–eGFP reporter); type: cell-based, human
Method in brief: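 Readout was the eGFP-to-mCherry geometric-mean ratio by flow cytometry, normalized to three DMSO controls, after 5 h drug exposure. Cells used were HEK293T–Cas9 expressing the dual-colour cyclin K–eGFP degradation reporter.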

HEK293T cells = assay: Drug sensitivity assay (CellTiter-Glo viability) with or without MLN4924 pretreatment; type: cell-based, human; conditions: for Toxicity rescue: MLN4924-mediated cytotoxicity rescue, 10 µM used where n.d.
Method in brief: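 HEK293T–Cas9, 0.15 × 10^6 ml^−1; pretreat DMSO vs 100 nM MLN4924; drugs dispensed after 2 h; 3 d exposure; CellTiter-Glo; viability vs DMSO control.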

- TR-FRET signal at compound concentration 4.68 nM (CDK12–cyclin K and DDB1): 0.1339 and 0.1541
- TR-FRET signal at compound concentration 21.6 nM (CDK12–cyclin K and DDB1): 0.1288 and 0.1496
- TR-FRET signal at compound concentration 36 nM (CDK12–cyclin K and DDB1): 0.1327 and 0.1506
- TR-FRET signal at compound concentration 79.2001 nM (CDK12–cyclin K and DDB1): 0.1323 and 0.1494
- TR-FRET signal at compound concentration 158.4 nM (CDK12–cyclin K and DDB1): 0.1293 and 0.1473
- TR-FRET signal at compound concentration 309.6 nM (CDK12–cyclin K and DDB1): 0.1264 and 0.1438
- TR-FRET signal at compound concentration 626.401 nM (CDK12–cyclin K and DDB1): 0.1205 and 0.1382
- TR-FRET signal at compound concentration 1252.8 nM (CDK12–cyclin K and DDB1): 0.1096 and 0.1174
- TR-FRET signal at compound concentration 2448 nM (CDK12–cyclin K and DDB1): 0.09891 and 0.113
- TR-FRET signal at compound concentration 9936.01 nM (CDK12–cyclin K and DDB1): 0.07702 and 0.08712
- TR-FRET signal at compound concentration 20016 nM (CDK12–cyclin K and DDB1): 0.06845 and 0.07789
- DC50 ([1]; Supplementary Table 2; HEK293T cycK-eGFP reporter, 5 h; read-out: Cellular assays DC50): > 10 µM
Compound: CO[C@@H](C(=O)N1Cc2n[nH]c(NC(=O)c3ccc(N4CCN(C)CC4)cc3)c2C1)c1ccccc1 [Danusertib, reference compound]
- EC50 (HEK293T cells; Homo sapiens, HEK-293T, Supplementary Table 2, HEK293T viability, 72 h, compound alone, read-out: Cellular assays EC50): > 10 µM
- Toxicity rescue (HEK293T cells; Supplementary Table 2): 0%

- TR-FRET signal at compound concentration 0.468 nM (CDK12–cyclin K and DDB1; compound concentration 0.468 nM): 0.1026 and 0.1033
- TR-FRET signal at compound concentration 2.16 nM (CDK12–cyclin K and DDB1; compound concentration 2.16 nM): 0.1211 and 0.1202
- TR-FRET signal at compound concentration 3.6 nM (CDK12–cyclin K and DDB1; compound concentration 3.6 nM): 0.158 and 0.1569
- TR-FRET signal at compound concentration 4.68 nM (CDK12–cyclin K and DDB1): 0.141 and 0.164
- TR-FRET signal at compound concentration 7.92001 nM (CDK12–cyclin K and DDB1; compound concentration 7.92001 nM): 0.229 and 0.2182
- TR-FRET signal at compound concentration 15.84 nM (CDK12–cyclin K and DDB1; compound concentration 15.84 nM): 0.3288 and 0.3136
- TR-FRET signal at compound concentration 21.6 nM (CDK12–cyclin K and DDB1): 0.2804 and 0.3137
- TR-FRET signal at compound concentration 30.96 nM (CDK12–cyclin K and DDB1; compound concentration 30.96 nM): 0.3522 and 0.3143
- TR-FRET signal at compound concentration 36 nM (CDK12–cyclin K and DDB1): 0.3155 and 0.3474
- TR-FRET signal at compound concentration 62.6401 nM (CDK12–cyclin K and DDB1; compound concentration 62.6401 nM): 0.2879 and 0.2897
- TR-FRET signal at compound concentration 79.2001 nM (CDK12–cyclin K and DDB1): 0.2612 and 0.2943
- TR-FRET signal at compound concentration 125.28 nM (CDK12–cyclin K and DDB1; compound concentration 125.28 nM): 0.2755 and 0.2904
- TR-FRET signal at compound concentration 158.4 nM (CDK12–cyclin K and DDB1): 0.2643 and 0.2881
- TR-FRET signal at compound concentration 244.8 nM (CDK12–cyclin K and DDB1; compound concentration 244.8 nM): 0.2809 and 0.2743
- TR-FRET signal at compound concentration 309.6 nM (CDK12–cyclin K and DDB1): 0.2462 and 0.2819
- TR-FRET signal at compound concentration 626.401 nM (CDK12–cyclin K and DDB1): 0.2417 and 0.2805
- TR-FRET signal at compound concentration 993.601 nM (CDK12–cyclin K and DDB1; compound concentration 993.601 nM): 0.2627 and 0.2615
- TR-FRET signal at compound concentration 1252.8 nM (CDK12–cyclin K and DDB1): 0.2431 and 0.2774
- TR-FRET signal at compound concentration 2001.6 nM (CDK12–cyclin K and DDB1; compound concentration 2001.6 nM): 0.2535 and 0.232
- TR-FRET signal at compound concentration 2448 nM (CDK12–cyclin K and DDB1): 0.2678 and 0.2721
- TR-FRET signal at compound concentration 9936.01 nM (CDK12–cyclin K and DDB1): 0.2509 and 0.2771
- TR-FRET signal at compound concentration 20016 nM (CDK12–cyclin K and DDB1): 0.2402 and 0.253
- DC50 ([1]; read-out: Cellular assays DC50; Supplementary Table 2; HEK293T cycK-eGFP reporter, 5 h): > 10 µM
Compound: CCc1cnn2c(NCc3ccc[n+]([O-])c3)cc(N3CCCC[C@H]3CCO)nc12 [Dinaciclib]
- reporter assay signal (normalized) ([1]; 5 nM; replicates): 0.9772 and 0.948
- reporter assay signal (normalized) ([1]; 10.7 nM; replicates): 0.9389 and 0.9407
- reporter assay signal (normalized) ([1]; 22.9 nM; replicates): 0.9927 and 0.9745
- reporter assay signal (normalized) ([1]; 48.9 nM; replicates): 0.9927 and 0.9772
- reporter assay signal (normalized) ([1]; 105 nM; replicates): 0.9863 and 0.9964
- reporter assay signal (normalized) ([1]; 224 nM; replicates): 1.014 and 1.0155
- reporter assay signal (normalized) ([1]; 478 nM; replicates): 0.99 and 1.01
- reporter assay signal (normalized) ([1]; 2190 nM; replicates): 0.9881 and 0.9945
- reporter assay signal (normalized) ([1]; 4680 nM; replicates): 1.022 and 0.99
- reporter assay signal (normalized) ([1]; 10000 nM; replicates): 1.044 and 1.03
- cyclin K reporter degradation, result in words ([1]; HEK293T): non-degrading
- viability assay signal (normalized) (HEK293T cells; 5 nM, + MLN4924): 0.8664 and 0.8028
- viability assay signal (normalized) (HEK293T cells; 5 nM, without MLN4924): 0.9657 and 1.0645
- viability assay signal (normalized) (HEK293T cells; 10.7 nM, + MLN4924): 0.7659 and 0.6765
- viability assay signal (normalized) (HEK293T cells; 10.7 nM, without MLN4924): 0.9934 and 0.9758
- viability assay signal (normalized) (HEK293T cells; 22.9 nM, + MLN4924): 0.3817 and 0.3517
- viability assay signal (normalized) (HEK293T cells; 22.9 nM, without MLN4924): 0.3511 and 0.381
- viability assay signal (normalized) (HEK293T cells; 48.9 nM, + MLN4924): 0.2784 and 0.2759
- viability assay signal (normalized) (HEK293T cells; 48.9 nM, without MLN4924): 0.2851 and 0.2898
- viability assay signal (normalized) (HEK293T cells; 105 nM, + MLN4924): 0.2848 and 0.2647
- viability assay signal (normalized) (HEK293T cells; 105 nM, without MLN4924): 0.2976 and 0.3085
- viability assay signal (normalized) (HEK293T cells; 224 nM, + MLN4924): 0.2797 and 0.277
- viability assay signal (normalized) (HEK293T cells; 224 nM, without MLN4924): 0.291 and 0.2867
- viability assay signal (normalized) (HEK293T cells; 478 nM, + MLN4924): 0.2746 and 0.2757
- viability assay signal (normalized) (HEK293T cells; 478 nM, without MLN4924): 0.3016 and 0.2883
- viability assay signal (normalized) (HEK293T cells; 2190 nM, + MLN4924): 0.2646 and 0.2589
- viability assay signal (normalized) (HEK293T cells; 2190 nM, without MLN4924): 0.2893 and 0.2745
- viability assay signal (normalized) (HEK293T cells; 4680 nM, + MLN4924): 0.2516 and 0.2662
- viability assay signal (normalized) (HEK293T cells; 4680 nM, without MLN4924): 0.2682 and 0.2734
- viability assay signal (normalized) (HEK293T cells; 10000 nM, + MLN4924): 0.2413 and 0.2482
- viability assay signal (normalized) (HEK293T cells; 10000 nM, without MLN4924): 0.239 and 0.2604
- Toxicity rescue (HEK293T cells; Supplementary Table 2): -12%
